The source made the active and inactive calls. The rule behind the calls is not given here.

The subject of this test is Human immunodeficiency virus. Briefly: Antiviral activity against HIV at 100 uM. The test is classed as functional, organism-based.

Take `C[C@H]1[C@@H](O)[C@H](n2cnc(C(N)=O)c2N)O[C@@H]1CO`: the outcome was inactive. To `Cc1cn([C@H]2C[C@H](C)[C@@H](CO)O2)c(=O)[nH]c1=O` belongs “inactive”; to `C[C@H]1C[C@H](n2cnc(C(N)=O)n2)O[C@@H]1CO`, “inactive”. For the molecule `Nc1ccn([C@H]2C[C@H](O)[C@@H](CO)O2)c(=O)n1`, the result was inactive.

`C[C@H]1[C@@H](O)[C@H](n2cnc(C(N)=O)n2)O[C@@H]1CO`: the outcome was inactive.

As to `C[C@H]1C[C@H](n2ccc(=O)[nH]c2=O)O[C@@H]1CO`, the result was inactive. To `C[C@H]1C[C@H](n2cnc(C(N)=O)n2)O[C@@H]1COC(=O)c1ccccc1` belongs “inactive”; to `C[C@H]1C[C@H](n2cnc3c(=O)[nH]c(N)nc32)O[C@@H]1CO`, “inactive”.

As for `C[C@H]1C[C@H](n2cnc3c(N)ncnc32)O[C@@H]1CO`, the outcome was inactive. For `C[C@H]1[C@@H](O)[C@H](n2cnc(C(N)=O)n2)O[C@@H]1COC(=O)c1ccccc1` the value was “inactive”.

These data come from ChEMBL document CHEMBL1155786, “Synthesis of 3'-deoxy-3'-C-methyl nucleoside derivatives” (Bioorg Med Chem, 2008).
